Test results taken from patent US8859584B2, “TRPV1 antagonists” (AbbVie Inc., priority 2011, dated 2014).

Tests used:
human TRPV1 [1] = biological target: T1, human TRPV1 (Homo sapiens, UniProt Q8NER1); experiment: Capsaicin Activation Assay (FLIPR intracellular Ca2+, recombinant HEK293 cells); type: cell-based; settings: recombinant HEK293 cells expressing hTRPV1; 50 nM capsaicin; read-out: human TRPV1 capsaicin IC50
T1 construct: expressed in transfected cells
Protocol: (i) Capsaicin Activation Assay
Dulbecco's modified Eagle medium (DMEM) (with 4.5 mg/mL glucose) and fetal bovine serum were obtained from Hyclone Laboratories, Inc. (Logan, Utah). Dulbecco's phosphate-buffered saline (DPBS) (with 1 mg/mL glucose and 3.6 mg/l Na pyruvate, without phenol red), L-glutamine, hygromycin B, and Lipofectamine® were obtained from Life Technologies (Grand Island, N.Y.). G418 sulfate was obtained from Calbiochem-Novabiochem Corp. (San Diego, Calif.). Capsaicin (8-methyl-N-vanillyl-6-nonenamide) was obtained from Sigma-Aldrich, Co. (St. Louis, Mo.). Fluo-4 AM (N-[4-[6-[(acetyloxy)-methoxy]-2,7-difluoro-3-oxo-3H-xanthen-9-yl]-2-[2-[2-[bis[2-[(acetyloxy)methoxy]-2-oxyethyl]amino]-5-methylphenoxy]ethoxy]phenyl]-N-[2-[(acetyloxy)methoxy]-2-oxyethyl]-glycine, (acetyloxy)methyl ester) was purchased from Molecular Probes (Eugene, Oreg.).
(§1) Expression plasmids encoding the hTRPV1 cDNA were transfected into HEK293 cells using Lipofectamine®. Forty-eight hours after transfection, the neomycin-resistant cells were selected with growth medium containing 800 μg/mL Geneticin (Life Technologies, formerly Gibco BRL). Surviving individual colonies were isolated and screened for TRPV1 activity. Cells expressing recombinant TRPV1 were maintained at 37° C. in DMEM containing 4 mM L-glutamine, 300 μg/mL G418 (Calbiochem) and 10% fetal bovine serum under a humidified 5% CO2 atmosphere.
The functional activity of compounds at the TRPV1 receptor was determined by measurement of intracellular Ca^2+ levels ([Ca^2+]i) using the Fluorescence Imaging Plate Reader (FLIPR)TETRA®. All compounds were tested over a 12-point one-third-log concentration range. Compound stocks, 10 mM, were prepared in DMSO, and diluted serially across a 384-well plate using a Bravo BenchCel workstation (Agilent Technologies, Santa Clara, Calif.). A stock concentration of capsaicin (10 mM) was made in DMSO, and diluted in DPBS to a final concentration of 200 nM (4×). On the day prior to the experiment, the recombinant HEK293 cells expressing human TRPV1 (hTRPV1) were removed from tissue culture flasks and plated in growth medium into black-walled clear-bottom 384-well Biocoat™ poly-D-lysine assay plates (BD Biosciences, Bedford, Mass.) using a Multidrop® dispenser (ThermoScientific, Waltham, Mass.). […] The plated cells were incubated for 90-120 minutes in the dark at room temperature and then test compound was added to each well. Three minutes later, 200 nM capsaicin (4×) solution was added to each well in an amount sufficient to provide a final assay volume of 80 μL and capsaicin concentration of 50 nM. Fluorescence readings were made at 1 to 5 second intervals over the course of the experimental run. The peak increase in relative fluorescence units (minus baseline) was calculated, and expressed as a percentage of the 50 nM capsaicin (control) response.

human TRPV1 [2] = biological target: T1, human TRPV1; experiment: Acid Activation Assay (pH 5.0, FLIPR intracellular Ca2+, recombinant HEK293 cells); type: cell-based; settings: percentage of maximal pH 5.0-induced response remaining; HEK293 hTRPV1; max concentration 37.5 μM
Protocol: (ii) Acid Activation Assay
Dulbecco's modified Eagle's medium (DMEM) with 4.5 mg/mL D-glucose, fetal bovine serum, L-glutamine, and 2-morpholinoethanesulfonic acid (MES) were purchased from Sigma-Aldrich Co. (St. Louis, Mo.). […] The FLIPR® Calcium 4 assay kit was purchased from Molecular Devices (Sunnyvale, Calif.).
as §1
The functional activity of compounds at the TRPV1 receptor was determined by measurement of intracellular Ca^2+ levels ([Ca^2+]i) using the Fluorescence Imaging Plate Reader (FLIPR)TETRA®. […] Compound stocks, 10 mM, were prepared in DMSO, and diluted serially across a 384-well plate using a Bravo BenchCel workstation (Agilent Technologies, Santa Clara, Calif.). On the day prior to the experiment, the recombinant HEK293 cells expressing human TRPV1 (hTRPV1) were removed from tissue culture flasks and plated in growth medium into black-walled clear-bottom 384-well Biocoat™ poly-D-lysine assay plates (BD Biosciences, Bedford, Mass.) using a Multidrop® dispenser (ThermoScientific, Waltham, Mass.). […] The plated cells were incubated for 90-120 min in the dark at 25° C. The test compounds dissolved in DMSO were then added to the plates using an Agilent Bravo workstation (Agilent Technologies Inc., Santa Clara, Calif.). Three minutes later, a pH 5.0 solution was added to each well. Reagents were delivered at a rate of 40 μL/sec, and the final assay volume was 80 μL. Acidic pH solutions were prepared by titration of DPBS/MES with 1 N HCl. The intensity of the fluorescence was captured and digitally transferred to an interfaced PC. The maximum peak measured for the concentration range tested was used to calculate the corresponding peak increase in fluorescence over baseline (relative fluorescence units) which was expressed as the percentage (max % remain) of the maximal pH 5.0-induced response.

T1 sequence (Q8NER1 whole entry): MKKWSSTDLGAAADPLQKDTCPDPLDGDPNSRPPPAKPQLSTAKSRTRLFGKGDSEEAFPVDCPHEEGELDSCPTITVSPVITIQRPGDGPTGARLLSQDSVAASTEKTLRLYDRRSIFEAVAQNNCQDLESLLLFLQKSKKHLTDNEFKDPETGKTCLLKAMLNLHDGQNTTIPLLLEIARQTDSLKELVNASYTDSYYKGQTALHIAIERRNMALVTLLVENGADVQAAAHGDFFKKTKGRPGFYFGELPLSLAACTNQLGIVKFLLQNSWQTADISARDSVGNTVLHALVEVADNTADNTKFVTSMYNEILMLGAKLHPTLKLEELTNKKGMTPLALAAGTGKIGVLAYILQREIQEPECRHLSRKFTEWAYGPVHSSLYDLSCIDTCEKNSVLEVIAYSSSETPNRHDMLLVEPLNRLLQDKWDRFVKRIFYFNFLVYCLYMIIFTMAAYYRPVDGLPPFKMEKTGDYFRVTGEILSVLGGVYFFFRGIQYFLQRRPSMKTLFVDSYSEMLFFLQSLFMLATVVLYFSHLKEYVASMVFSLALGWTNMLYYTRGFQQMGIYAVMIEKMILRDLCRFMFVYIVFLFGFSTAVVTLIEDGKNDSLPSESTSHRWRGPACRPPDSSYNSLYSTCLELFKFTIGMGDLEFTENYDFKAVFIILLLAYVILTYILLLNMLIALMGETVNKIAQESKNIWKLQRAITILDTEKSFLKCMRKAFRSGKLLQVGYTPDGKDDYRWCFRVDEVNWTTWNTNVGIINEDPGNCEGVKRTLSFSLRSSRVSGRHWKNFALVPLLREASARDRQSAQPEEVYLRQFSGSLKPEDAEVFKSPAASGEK

IC50 (human TRPV1 [1]) | human TRPV1 H+ (max % remain) (human TRPV1 [2]) | Compound
710 nM | 15% | O=C(Nc1cccc2c1C[C@@H](O)C2)N[C@@H]1CC(CF)(CF)Oc2c(F)cc(F)cc21 [Example 79, 1-[(4R)-6,8-difluoro-2,2-bis(fluoromethyl)-3,4-dihydro-2H-chromen-4-yl]-3-[(2S)-2-hydroxy-2,3-dihydro-1H-inden-4-yl]urea]
570 nM | 63% | O=C(Nc1cccc2c1C[C@H](O)C2)N[C@@H]1CC(CF)(CF)Oc2ccc(F)cc21 [Example 57, 1-[(4R)-6-fluoro-2,2-bis(fluoromethyl)-3,4-dihydro-2H-chromen-4-yl]-3-[(2R)-2-hydroxy-2,3-dihydro-1H-inden-4-yl]urea]
54 nM | 20% | O=C(Nc1cccc2c1C[C@H](O)C2)N[C@@H]1CC2(CCC2)Oc2cc(C(F)(F)F)ccc21 [Example 42, 1-[(2R)-2-hydroxy-2,3-dihydro-1H-inden-4-yl]-3-[(4R)-7-(trifluoromethyl)-3,4-dihydrospiro[chromene-2,1′-cyclobutan]-4-yl]urea]
32 nM | 1% | O=C(Nc1cccc2c1C[C@@H](O)C2)N[C@@H]1CC(CF)(CF)Oc2cc(OC(F)(F)F)ccc21 [Example 76, 1-[(4R)-2,2-bis(fluoromethyl)-7-(trifluoromethoxy)-3,4-dihydro-2H-chromen-4-yl]-3-[(2S)-2-hydroxy-2,3-dihydro-1H-inden-4-yl]urea]
27 nM | 55% | CC1(C)C[C@@H](NC(=O)Nc2cccc3c2C[C@H](O)C3)c2ccc(C(F)(F)F)cc2O1 [Example 3, 1-[(4R)-2,2-dimethyl-7-(trifluoromethyl)-3,4-dihydro-2H-chromen-4-yl]-3-[(2R)-2-hydroxy-2,3-dihydro-1H-inden-4-yl]urea]
97 nM | 11% | O=C(Nc1cccc2c1C[C@H](O)C2)N[C@@H]1COc2ccc(Cl)cc2C1 [Example 27, 1-[(3S)-6-chloro-3,4-dihydro-2H-chromen-3-yl]-3-[(2R)-2-hydroxy-2,3-dihydro-1H-inden-4-yl]urea]
1000 nM | 92% | C[C@]1(CF)C[C@@H](NC(=O)Nc2ccc3c(c2)C(O)C3)c2ccc(Cl)cc2O1 (stereo partly drawn) [Example 131, 1-[(2R,4R)-7-chloro-2-(fluoromethyl)-2-methyl-3,4-dihydro-2H-chromen-4-yl]-3-(8-hydroxybicyclo[4.2.0]octa-1,3,5-trien-3-yl)urea]
89 nM | 74% | O=C(Nc1cccc2c1C[C@H](O)C2)N[C@@H]1CCOc2cc(C(F)(F)F)ccc21 [Example 21, 1-[(2R)-2-hydroxy-2,3-dihydro-1H-inden-4-yl]-3-[(4R)-7-(trifluoromethyl)-3,4-dihydro-2H-chromen-4-yl]urea]
22 nM | 75% | CCC1(CC)C[C@@H](NC(=O)Nc2cccc3c2C[C@H](O)C3)c2ccccc2O1 [Example 49, 1-[(4R)-2,2-diethyl-3,4-dihydro-2H-chromen-4-yl]-3-[(2R)-2-hydroxy-2,3-dihydro-1H-inden-4-yl]urea]

Continued, molecule first:

Compound | IC50 (human TRPV1 [1]) | human TRPV1 H+ (max % remain) (human TRPV1 [2])
O=C(Nc1cccc2c1C[C@@H](O)C2)N[C@H]1CCOc2cc(OC(F)(F)F)ccc21 [Example 94, 1-[(2S)-2-hydroxy-2,3-dihydro-1H-inden-4-yl]-3-[(4S)-7-(trifluoromethoxy)-3,4-dihydro-2H-chromen-4-yl]urea] | 5900 nM | 47%
O=C(Nc1cccc2c1C[C@H](O)C2)N[C@@H]1CC(CF)(CF)Oc2c(Cl)cccc21 [Example 2, 1-[(4R)-8-chloro-2,2-bis(fluoromethyl)-3,4-dihydro-2H-chromen-4-yl]-3-[(2R)-2-hydroxy-2,3-dihydro-1H-inden-4-yl]urea] | 160 nM | 80%
CC1(C)C[C@@H](NC(=O)Nc2cccc3c2C[C@@H](O)C3)c2ccc(OC(F)(F)F)cc2O1 [Example 72, 1-[(4R)-2,2-dimethyl-7-(trifluoromethoxy)-3,4-dihydro-2H-chromen-4-yl]-3-[(2S)-2-hydroxy-2,3-dihydro-1H-inden-4-yl]urea] | 27 nM | 0%
O=C(Nc1ccc(F)c2c1C[C@H](O)C2)N[C@@H]1CCOc2c(OC(F)(F)F)cccc21 [Example 137, 1-[(2S)-7-fluoro-2-hydroxy-2,3-dihydro-1H-inden-4-yl]-3-[(4R)-8-(trifluoromethoxy)-3,4-dihydro-2H-chromen-4-yl]urea] | 350 nM | 4%
O=C(Nc1cccc2c1C[C@@H](O)C2)N[C@@H]1CC(CF)(CF)Oc2c1ccc(Cl)c2F [Example 81, 1-[(4R)-7-chloro-8-fluoro-2,2-bis(fluoromethyl)-3,4-dihydro-2H-chromen-4-yl]-3-[(2S)-2-hydroxy-2,3-dihydro-1H-inden-4-yl]urea] | 59 nM | 11%
CC1(C)C[C@@H](NC(=O)Nc2cccc3c2C[C@@H](O)C3)c2cccc(F)c2O1 [Example 71, 1-[(4R)-8-fluoro-2,2-dimethyl-3,4-dihydro-2H-chromen-4-yl]-3-[(2S)-2-hydroxy-2,3-dihydro-1H-inden-4-yl]urea] | 520 nM | 52%
O=C(Nc1ccc(F)c2c1C[C@H](O)C2)N[C@@H]1CC(CF)(CF)Oc2c(F)cccc21 [Example 152, 1-[(4R)-8-fluoro-2,2-bis(fluoromethyl)-3,4-dihydro-2H-chromen-4-yl]-3-[(2S)-7-fluoro-2-hydroxy-2,3-dihydro-1H-inden-4-yl]urea] | 5500 nM | 3%
O=C(Nc1cccc2c1C[C@H](O)C2)N[C@@H]1CC(CF)(CF)Oc2c1ccc(Cl)c2F [Example 11, 1-[(4R)-7-chloro-8-fluoro-2,2-bis(fluoromethyl)-3,4-dihydro-2H-chromen-4-yl]-3-[(2R)-2-hydroxy-2,3-dihydro-1H-inden-4-yl]urea] | 56 nM | 64%
CC1(C)C[C@@H](NC(=O)Nc2cccc3c2C[C@H](O)C3)c2cccc(C(F)(F)F)c2O1 [Example 29, 1-[(4R)-2,2-dimethyl-8-(trifluoromethyl)-3,4-dihydro-2H-chromen-4-yl]-3-[(2R)-2-hydroxy-2,3-dihydro-1H-inden-4-yl]urea] | 15 nM | 72%
O=C(Nc1cccc2c1CC(O)C2)NC1CC2(CCCCC2)Oc2ccccc21 (stereo not shown) [Example 123, 1-(3,4-dihydrospiro[chromene-2,1′-cyclohexan]-4-yl)-3-(2-hydroxy-2,3-dihydro-1H-inden-4-yl)urea] | 140 nM | 61%
Cc1nc(Nc2cccc3c2C[C@H](O)CC3)oc1-c1ccc(C(F)(F)F)cc1 [Example D, reference compound] | – | 3%
CC(C)(C)c1ccc2c(c1)CC[C@H]2NC(=O)Nc1cccc2[nH]ncc12 [C, reference compound] | – | 1%
